Measured values as given in patent US7494996B2 (priority 2000, dated 2009).

Key:
Sphaerotheca fuliginea = experiment: Cucumber Powdery Mildew (CPM) protectant test in the greenhouse; type: in vivo; settings: 100 is total disease control, 0 is no disease control; for Cucumber Powdery Mildew (CPM) protectant fungicide data, percent control: 300 g/ha
Procedure, shortened: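 Compounds in acetone-methanol-water (1:1:2) sprayed onto cucumber cv. "Bush Champion" (cotyledons plus one true leaf, 13 days old), dried 4 h. Inoculated 1 day later with 2×10^5 spores/ml; disease control (%) rated after 7 days in greenhouse.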

Pyricularia oryzae = experiment: whole plant or invertebrate; type: in vivo; settings: 100 is total disease control, 0 is no disease control; for Rice Blast (RB) protectant fungicide data, percent control: 300 g/ha, greenhouse

CC(C)(C)OC(=O)N1CC(=O)N(C(=O)OC(C)(C)C)N=C1c1cc(Cl)cc(Cl)c1 [Compound 11, 1,4-di-(t-butoxycarbonyl)-3-(3,5-dichlorphenyl)-4,5-dihydro-1,2,4-triazin-6-one]
Cucumber Powdery Mildew (CPM) protectant fungicide data, percent control (Sphaerotheca fuliginea): 0 percent control
Rice Blast (RB) protectant fungicide data, percent control (Pyricularia oryzae): 75 percent control

CCCCN1N=C(c2cc(Cl)cc(Cl)c2)NCC1=O [Compound 104]
Cucumber Powdery Mildew (CPM) protectant fungicide data, percent control (Sphaerotheca fuliginea): 80 percent control
Rice Blast (RB) protectant fungicide data, percent control (Pyricularia oryzae): 99 percent control

C=CC(=O)N1CC(=O)N(CC(F)(F)F)N=C1c1cc(Cl)cc(Cl)c1 [Compound 137]
Cucumber Powdery Mildew (CPM) protectant fungicide data, percent control (Sphaerotheca fuliginea): 0 percent control
Rice Blast (RB) protectant fungicide data, percent control (Pyricularia oryzae): 85 percent control

CCCCN1N=C(c2cc(Cl)ccc2Cl)NCC1=O [Compound 74]
Cucumber Powdery Mildew (CPM) protectant fungicide data, percent control (Sphaerotheca fuliginea): 0 percent control
Rice Blast (RB) protectant fungicide data, percent control (Pyricularia oryzae): 99 percent control

CCCCN1N=C(C)NC(c2ccc(F)c(C)c2)C1=O (centres unmarked) [Compound 94]
Cucumber Powdery Mildew (CPM) protectant fungicide data, percent control (Sphaerotheca fuliginea): 75 percent control
Rice Blast (RB) protectant fungicide data, percent control (Pyricularia oryzae): 0 percent control

CCCCN1N=C(C)NC(c2cccc(OC)c2)C1=O (centres unmarked) [Compound 80]
Cucumber Powdery Mildew (CPM) protectant fungicide data, percent control (Sphaerotheca fuliginea): 50 percent control
Rice Blast (RB) protectant fungicide data, percent control (Pyricularia oryzae): 0 percent control

O=C1CNC(c2ccc(Cl)cc2)=NN1c1ccccc1 [Compound 28]
Cucumber Powdery Mildew (CPM) protectant fungicide data, percent control (Sphaerotheca fuliginea): 85 percent control
Rice Blast (RB) protectant fungicide data, percent control (Pyricularia oryzae): 85 percent control

CCOC(=O)CN1N=C(c2cccc(C)c2)NCC1=O [Compound 165]
Cucumber Powdery Mildew (CPM) protectant fungicide data, percent control (Sphaerotheca fuliginea): 0 percent control
Rice Blast (RB) protectant fungicide data, percent control (Pyricularia oryzae): 80 percent control

CCCCN1N=C(c2ccc(Cl)c(Cl)c2)N(Cc2ccc(OC)c(OC)c2)CC1=O [Compound 200]
Cucumber Powdery Mildew (CPM) protectant fungicide data, percent control (Sphaerotheca fuliginea): 0 percent control
Rice Blast (RB) protectant fungicide data, percent control (Pyricularia oryzae): 85 percent control

N#Cc1cccc(C2=NN(CC(F)(F)F)C(=O)CN2)c1 [Compound 176]
Cucumber Powdery Mildew (CPM) protectant fungicide data, percent control (Sphaerotheca fuliginea): 50 percent control
Rice Blast (RB) protectant fungicide data, percent control (Pyricularia oryzae): 50 percent control

COc1ccc(C2=NN(CC(F)(F)F)C(=O)C(OC)N2)cc1 (centres unmarked) [Compound 39]
Cucumber Powdery Mildew (CPM) protectant fungicide data, percent control (Sphaerotheca fuliginea): 85 percent control
Rice Blast (RB) protectant fungicide data, percent control (Pyricularia oryzae): 99 percent control

CCC#CCN1CC(=O)N(CC#CCC)N=C1c1ccc(Cl)c(Cl)c1 [Compound 209]
Cucumber Powdery Mildew (CPM) protectant fungicide data, percent control (Sphaerotheca fuliginea): 0 percent control
Rice Blast (RB) protectant fungicide data, percent control (Pyricularia oryzae): 75 percent control

O=C1CNC(c2ccc(F)c(F)c2)=NN1CC(F)(F)F [Compound 98]
Cucumber Powdery Mildew (CPM) protectant fungicide data, percent control (Sphaerotheca fuliginea): 75 percent control
Rice Blast (RB) protectant fungicide data, percent control (Pyricularia oryzae): 85 percent control

O=C1CNC(c2ccc(Cl)cc2Cl)=NN1CC(F)(F)F [Compound 73]
Cucumber Powdery Mildew (CPM) protectant fungicide data, percent control (Sphaerotheca fuliginea): 75 percent control
Rice Blast (RB) protectant fungicide data, percent control (Pyricularia oryzae): 85 percent control

C#CCN1CC(=O)N(CC#C)N=C1c1ccc(F)c(Br)c1 [Compound 217]
Cucumber Powdery Mildew (CPM) protectant fungicide data, percent control (Sphaerotheca fuliginea): 0 percent control
Rice Blast (RB) protectant fungicide data, percent control (Pyricularia oryzae): 85 percent control

Cc1cccc(C2=NN(CC(F)(F)F)C(=O)CN2)c1 [Compound 154]
Cucumber Powdery Mildew (CPM) protectant fungicide data, percent control (Sphaerotheca fuliginea): 75 percent control
Rice Blast (RB) protectant fungicide data, percent control (Pyricularia oryzae): 0 percent control

O=C1CNC(c2cnc3ccccc3c2)=NN1CC(F)(F)F [Compound 141]
Cucumber Powdery Mildew (CPM) protectant fungicide data, percent control (Sphaerotheca fuliginea): 50 percent control
Rice Blast (RB) protectant fungicide data, percent control (Pyricularia oryzae): 85 percent control

CCCCN1N=C(c2ccccc2OCc2ccccc2)NCC1=O [Compound 213]
Cucumber Powdery Mildew (CPM) protectant fungicide data, percent control (Sphaerotheca fuliginea): 50 percent control
Rice Blast (RB) protectant fungicide data, percent control (Pyricularia oryzae): 85 percent control

C=CCOC(=O)N1CC(=O)N(CC(F)(F)F)N=C1c1cc(Cl)cc(Cl)c1 [Compound 134]
Cucumber Powdery Mildew (CPM) protectant fungicide data, percent control (Sphaerotheca fuliginea): 50 percent control
Rice Blast (RB) protectant fungicide data, percent control (Pyricularia oryzae): 80 percent control

COc1ccc(C2=NN(CC(F)(F)F)C(=O)CN2)cc1 [Compound 35]
Cucumber Powdery Mildew (CPM) protectant fungicide data, percent control (Sphaerotheca fuliginea): 50 percent control
Rice Blast (RB) protectant fungicide data, percent control (Pyricularia oryzae): 50 percent control

CCOC(=O)Cn1nc(-c2cccc(C)c2)ncc1=O [Compound 275]
Cucumber Powdery Mildew (CPM) protectant fungicide data, percent control (Sphaerotheca fuliginea): 0 percent control
Rice Blast (RB) protectant fungicide data, percent control (Pyricularia oryzae): 85 percent control

N#CCCn1nc(-c2ccc(-c3ccc([N+](=O)[O-])cc3)cc2)ncc1=O [Compound 276]
Cucumber Powdery Mildew (CPM) protectant fungicide data, percent control (Sphaerotheca fuliginea): 0 percent control
Rice Blast (RB) protectant fungicide data, percent control (Pyricularia oryzae): 85 percent control

CCCCN1N=C(c2ccc(OC)cc2)NC(C)C1=O (centres unmarked) [Compound 38]
Cucumber Powdery Mildew (CPM) protectant fungicide data, percent control (Sphaerotheca fuliginea): 50 percent control
Rice Blast (RB) protectant fungicide data, percent control (Pyricularia oryzae): 0 percent control

CCCCN1N=C(c2ccc(Cl)c(Cl)c2)N(C(=O)Oc2ccccc2)CC1=O [Compound 173]
Cucumber Powdery Mildew (CPM) protectant fungicide data, percent control (Sphaerotheca fuliginea): 0 percent control
Rice Blast (RB) protectant fungicide data, percent control (Pyricularia oryzae): 50 percent control

CCOC(=O)CN1N=C(c2ccc(F)c(F)c2)NCC1=O [Compound 125]
Cucumber Powdery Mildew (CPM) protectant fungicide data, percent control (Sphaerotheca fuliginea): 50 percent control
Rice Blast (RB) protectant fungicide data, percent control (Pyricularia oryzae): 50 percent control

CCCCN1N=C(c2ccccc2OC)NCC1=O [Compound 195]
Cucumber Powdery Mildew (CPM) protectant fungicide data, percent control (Sphaerotheca fuliginea): 50 percent control
Rice Blast (RB) protectant fungicide data, percent control (Pyricularia oryzae): 99 percent control

CCCCN1N=C(C)NC(c2ccccc2)C1=O (centres unmarked) [Compound 92]
Cucumber Powdery Mildew (CPM) protectant fungicide data, percent control (Sphaerotheca fuliginea): 50 percent control
Rice Blast (RB) protectant fungicide data, percent control (Pyricularia oryzae): 0 percent control

C#CCN1N=C(c2ccc(Cl)c(Cl)c2)NCC1=O [Compound 215]
Cucumber Powdery Mildew (CPM) protectant fungicide data, percent control (Sphaerotheca fuliginea): 0 percent control
Rice Blast (RB) protectant fungicide data, percent control (Pyricularia oryzae): 85 percent control

C=CCOC(=O)N1CC(=O)N(CCCC)N=C1c1cc(Cl)cc(Cl)c1 [Compound 132]
Cucumber Powdery Mildew (CPM) protectant fungicide data, percent control (Sphaerotheca fuliginea): 50 percent control
Rice Blast (RB) protectant fungicide data, percent control (Pyricularia oryzae): 85 percent control

O=C1CN(CC=CCl)C(c2cc(Cl)cc(Cl)c2)=NN1CC=CCl (mixture of isomers) [Compound 66]
Cucumber Powdery Mildew (CPM) protectant fungicide data, percent control (Sphaerotheca fuliginea): 0 percent control
Rice Blast (RB) protectant fungicide data, percent control (Pyricularia oryzae): 50 percent control

COC1NC(c2cc(Cl)cc(Cl)c2)=NN(CC(F)(F)F)C1=O (centres unmarked) [Compound 18, 1-(2,2,2-Trifluoroethyl)-3-(3,5-dichlorophenyl)-5-methoxy-4,5-dihydro-1,2,4-triazin-6-one]
pest or weed control at 300 g/ha (Sphaerotheca fuliginea; Podosphaera fuliginea, topical, 168 h, read-out: Cucumber Powdery Mildew (CPM) protectant fungicide data, percent control): 75%
pest or weed control at 300 g/ha (Pyricularia oryzae; Pyricularia oryzae, topical, 144 h, read-out: Rice Blast (RB) protectant fungicide data, percent control, protectant, 300 g/ha, greenhouse): 95%

CCCCN1N=C(C)NC(c2ccc(C(C)(C)C)cc2)C1=O (centres unmarked) [Compound 95]
Cucumber Powdery Mildew (CPM) protectant fungicide data, percent control (Sphaerotheca fuliginea): 75 percent control
Rice Blast (RB) protectant fungicide data, percent control (Pyricularia oryzae): 25 percent control

O=C1CNC(c2cc(Cl)nc(Cl)c2)=NN1Cc1ccccc1 [Compound 190]
Cucumber Powdery Mildew (CPM) protectant fungicide data, percent control (Sphaerotheca fuliginea): 0 percent control
Rice Blast (RB) protectant fungicide data, percent control (Pyricularia oryzae): 80 percent control

O=C1CNC(c2ccc(Cl)c(Cl)c2)=NN1c1cccc(Cl)c1 [Compound 196]
Cucumber Powdery Mildew (CPM) protectant fungicide data, percent control (Sphaerotheca fuliginea): 0 percent control
Rice Blast (RB) protectant fungicide data, percent control (Pyricularia oryzae): 99 percent control

CCCCN1N=C(c2cc(Cl)cc(Cl)c2)N(C(=O)SC)CC1=O [Compound 129]
Cucumber Powdery Mildew (CPM) protectant fungicide data, percent control (Sphaerotheca fuliginea): 75 percent control
Rice Blast (RB) protectant fungicide data, percent control (Pyricularia oryzae): 50 percent control

CCCCN1N=C(c2cccc(C#N)c2)NCC1=O [Compound 175]
Cucumber Powdery Mildew (CPM) protectant fungicide data, percent control (Sphaerotheca fuliginea): 0 percent control
Rice Blast (RB) protectant fungicide data, percent control (Pyricularia oryzae): 95 percent control

CCCCn1nc(-c2ccccc2OC)ncc1=O [Compound 283]
Cucumber Powdery Mildew (CPM) protectant fungicide data, percent control (Sphaerotheca fuliginea): 50 percent control
Rice Blast (RB) protectant fungicide data, percent control (Pyricularia oryzae): 90 percent control

CCCCN1N=C(c2cccc(Br)c2)NCC1=O [Compound 211]
Cucumber Powdery Mildew (CPM) protectant fungicide data, percent control (Sphaerotheca fuliginea): 85 percent control
Rice Blast (RB) protectant fungicide data, percent control (Pyricularia oryzae): 100 percent control

C=CCOC(=O)N1CC(=O)N(CCCC)N=C1c1ccc(Cl)c(Cl)c1 [Compound 170]
Cucumber Powdery Mildew (CPM) protectant fungicide data, percent control (Sphaerotheca fuliginea): 75 percent control
Rice Blast (RB) protectant fungicide data, percent control (Pyricularia oryzae): 90 percent control

O=C1CNC(c2ccc(F)cc2)=NN1CC(F)(F)F [Compound 149]
Cucumber Powdery Mildew (CPM) protectant fungicide data, percent control (Sphaerotheca fuliginea): 75 percent control
Rice Blast (RB) protectant fungicide data, percent control (Pyricularia oryzae): 95 percent control
